Residues, ends and D or L forms follow the SMILES beside them.
System: Arg-e^K-DHFRha (mouse dihydrofolate reductase with e^K extension and ha epitope, from Ub-Arg-e^K-DHFRha)
Assay: Degradation of 35S-labeled N-end rule substrate in ATP-supplemented reticulocyte extract (acid-soluble 35S, SDS-PAGE)
Type: biochemical
Details: for inhibition of Arg-e^K-DHFRha degradation: FIG. 3A

inhibition of Arg-e^K-DHFRha degradation (20 μM methotrexate, ATP-supplemented reticulocyte extract, 37° C.)	effect on multiubiquitination of Arg-e^K-DHFRha (20 μM methotrexate, ATP-supplemented reticulocyte extract, SDS-PAGE)	inhibition of Arg-e^K-DHFRha degradation (1 mM Arg-Ala dipeptide, reticulocyte extract)	effect on ubiquitination of Arg-e^K-DHFRha (1 mM Arg-Ala dipeptide, reticulocyte extract, SDS-PAGE)	Compound
nearly complete inhibition	enhanced	–	–	CN(Cc1cnc2nc(N)nc(N)c2n1)c1ccc(C(=O)N[C@@H](CCC(=O)O)C(=O)O)cc1 [methotrexate]
–	–	almost completely inhibited	inhibited	C[C@H](NC(=O)[C@@H](N)CCCNC(=N)N)C(=O)O [Arg-Ala] (H-Arg-Ala-OH)
